Test results as given in PMC8401550, “Structural Characterization of a Macrocyclic Peptide Modulator of the PD-1/PD-L1 Immune Checkpoint Axis” (Molecules, 2021).

Tested on: PD-1/PD-L1 interaction, Jurkat cells overexpressing PD-1 with CHO-K1 cells overexpressing TCR activator and PD-L1
Assay: Cell-surface PD-L1/PD-1 immune checkpoint interaction assay (NFAT-luciferase reporter)
Assay type: cell-based
Conditions: control antibody; increase in luciferase reporter; fit of Hill equation; mean ± SD from three independent experiments
Protocol: CHO-K1 expressing the TCR activator and PD-L1 and Jurkat T cells carrying an NFAT-dependent luciferase gene and overexpressing PD-1 were obtained from Promega. The cells were cultured in RPMI 1640 medium supplemented with 10% FBS with hygromycin B (50 µg/mL) and G418 (250 µg/mL) at 37 °C with 5% CO2.
24 h before the experiment, the CHO-K1 cells were seeded on a 96-well plate in an amount of 10,000 cells/well. 2.5-fold serial dilutions of p104 were prepared in DMSO followed by 1000× dilution in the assay buffer (RPMI 1640, 1% FBS). The culture medium was replaced with the assay buffer containing 0.02–250 µM of p104. The Jurkat cells in the amount of 50,000 cells/well were added and co-cultured for 3 h in standard conditions. Luminescence was determined using Bio-Glo Assay reagent (Promega, Madison, WI, USA) following manufacturer protocol. Data were normalized at vehicle-treated control.

Question: How did the EC50 turn out when “Atezolizumab: FDA-approved therapeutic monoclonal antibody targeting PD-L1” was run?
Answer: The EC50 was 3.4 ± 0.2 nM.
